# Experimental data as given in patent US5451520A, “Creatine amidinohydrolase from alkaligenes sp. ks-85 ferm bp-4487” (Kikkoman Corporation, priority 1993, dated 1995).
# Assays:
# [1] = tested on: creatine amidinohydrolase from Alkaligenes sp. KS-85 (FERM BP-4487), the present enzyme; assay: Km determination by Lineweaver-Burk plot, creatine substrate; format: biochemical; details: pH 7.7, 37° C.
# Procedure: The enzyme activity forming […] yellow pigment in 1 minute under the following conditions is referred to as 1 U of the present enzyme.
# 6.63 g of creatine is dissolved in 500 ml of 50 mM buffer, pH 7.7.
# 1) 0.9 ml of the solution 1 is pre-incubated at 37° C. for 5 min.
# 2) 0.1 ml of an enzyme solution (adjusted in the range of approx. 1-2 U/ml) is mixed therewith and allowed to react at 37° C. for 10 min.
# 3) After 10 min. reaction, 2 ml of the solution 2 is mixed therewith.
# 4) After being mixed with the solution 2, the mixture is allowed to stand at 25° C. for 20 min., and the absorbance at 435 nm is determined (the OD sample).
# [2] = biological target: T1, conventional creatine amidinohydrolase (CRH-211, a product of Toyobo Co., Ltd.) (Pseudomonas putida, UniProt P38488); details: conventional enzyme; substrate creatine; cited from earlier work
# T1 construct: purchased Toyobo Co., Ltd. CRH-211
# T1 sequence (P38488 1-403): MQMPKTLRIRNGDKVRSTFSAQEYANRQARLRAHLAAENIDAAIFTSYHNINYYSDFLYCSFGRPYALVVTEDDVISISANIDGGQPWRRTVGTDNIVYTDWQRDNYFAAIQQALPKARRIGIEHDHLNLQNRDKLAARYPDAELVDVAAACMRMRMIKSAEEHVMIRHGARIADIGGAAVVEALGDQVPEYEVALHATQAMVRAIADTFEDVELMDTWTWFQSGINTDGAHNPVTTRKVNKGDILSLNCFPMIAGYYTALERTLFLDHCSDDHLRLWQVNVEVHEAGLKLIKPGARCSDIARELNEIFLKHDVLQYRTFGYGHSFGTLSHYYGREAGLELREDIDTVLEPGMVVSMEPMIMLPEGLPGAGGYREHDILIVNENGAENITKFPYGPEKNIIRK
compound,measurement,setting,value
CN(CC(=O)O)C(=N)N [creatine],Km,[1],13 mM
same,Km,[2],24 mM
